Results on 22 molecules are retold here after patent US20240018145A1, “[…]-DEPENDENT EN[…] TREATING OR […]” (priority 2020, published 2024).

As a reminder, the EC50 is the concentration at which the effect is half-maximal. Low values mean greater potency, high ones weaker potency.

This assay concerns FLU A (PR/8/34). In words: Flu A Neuraminidase Antiviral Assay. It is filed as cell-based.

Like-named read-outs stand apart in the source and are kept apart here. Some results are limits rather than exact numbers.

Turning to `C=CCC1CCC2N(C)C(=O)c3c(O)c(=O)ccn3N2C1c1ccccc1Cl` (stereo not shown) [Compound 64B, 2-allyl-1-(2-chlorophenyl)-7-hydroxy-5-methyl-1,2,3,4,4a,5-hexahydrodipyrido[1,2-b:2′,1′-f][1,2,4]triazine-6,8-dione], the EC50 came to 28.4 nM.
As for `CN1C(=O)c2c(O)c(=O)ccn2N2C1CCCC2(C)c1cccc(Cl)c1` (single isomer, unassigned) [Compound 28A, 1-(3-chlorophenyl)-7-hydroxy-1,5-dimethyl-1,2,3,4,4a,5-hexahydrodipyrido[1,2-b:2′,1′-f][1,2,4]triazine-6,8-dione], the EC50 is 5.2 nM.
Regarding `COC1(c2ccccc2)CCCC2C1n1ccc(=O)c(O)c1C(=O)N2C` (stereo not shown) [Compound 167, 7-hydroxy-1-methoxy-5-methyl-1-phenyl-1,3,4,4a,5,11a-hexahydro-2H-pyrido[1,2-a]quinoxaline-6,8-dione], the EC50 (MDCK, 48 h) is 109 nM.
Consider `CN1C(=O)c2c(O)c(=O)ccn2N2C1CCCC21CCc2ccccc21` (single isomer, unassigned) [Compound 21C, 7-hydroxy-5-methyl-2′,3,3′,4,4a,5-hexahydro-2H-spiro[dipyrido[1,2-b:2′,1′-f][1,2,4]triazine-1,1′-indene]-6,8-dione], for which the EC50 was 1600 nM.
Still for that read-out and setting: next, `Cc1cc(=O)c(O)c2n1N1C(c3ccccc3)C(CC(F)(F)F)CCC1N(C)C2=O` (single isomer, unassigned) [Compound 132C, 7-hydroxy-5,10-dimethyl-1-phenyl-2-(2,2,2-trifluoroethyl)-1,2,3,4,4a,5-hexahydrodipyrido[1,2-b:2′,1′-f][1,2,4]triazine-6,8-dione]: > 810 nM; `C=CCC1CCC2N(C)C(=O)c3c(O)c(=O)ccn3N2C1c1ccccc1Cl` (stereo not shown) [Compound 64A, 2-allyl-1-(2-chlorophenyl)-7-hydroxy-5-methyl-1,2,3,4,4a,5-hexahydrodipyrido[1,2-b:2′,1′-f][1,2,4]triazine-6,8-dione]: 3790 nM; `CN1C(=O)c2c(O)c(=O)ccn2N2C(c3ccc(Cl)c(F)c3)CCCC12` (single isomer, unassigned) [Compound 3B, 1-(4-chloro-3-fluorophenyl)-7-hydroxy-5-methyl-1,2,3,4,4a,5-hexahydrodipyrido[1,2-b:2′,1′-f][1,2,4]triazine-6,8-dione]: > 2700 nM.
Regarding `CCN1C(=O)c2c(O)c(=O)ccn2N2C1CCCC2(C)c1ccccc1` (single isomer, unassigned) [Compound 36A, 5-ethyl-7-hydroxy-1-methyl-1-phenyl-1,2,3,4,4a,5-hexahydrodipyrido[1,2-b:2′,1′-f][1,2,4]triazine-6,8-dione], a half-maximal effect (EC50) was put at 3.2 nM.
As for `CN1C(=O)c2c(O)c(=O)ccn2C2C1CCCC2(O)c1ccccc1` (single isomer, unassigned) [Compound 165A, 1,7-dihydroxy-5-methyl-1-phenyl-1,3,4,4a,5,11a-hexahydro-2H-pyrido[1,2-a]quinoxaline-6,8-dione], the EC50 (MDCK, 48 h) is > 8100 nM.
On to `CCC1(c2ccccc2)CCC2N(C)C(=O)c3c(O)c(=O)ccn3N21` (single isomer, unassigned) [Compound 62B, 1-ethyl-6-hydroxy-4-methyl-1-phenyl-2,3,3a,4-tetrahydro-1H-pyrido[2,1-f]pyrrolo[1,2-b][1,2,4]triazine-5,7-dione], for which the EC50 is > 8100 nM.
As for `CN1C(=O)c2c(O)c(=O)ccn2N2C1CCC1(CCCC(F)(F)C1)C2c1ccccc1` (single isomer, unassigned) [Compound 75B, 3,3-difluoro-7′-hydroxy-5′-methyl-1′-phenyl-3′,4′,4a′,5′-tetrahydro-1′H-spiro[cyclohexane-1,2′-dipyrido[1,2-b:2′,1′-f][1,2,4]triazine]-6′,8′-dione], the EC50 came out at 8 nM.
Regarding `CN1C(=O)c2c(O)c(=O)ccn2N2C(c3ccccc3C(F)(F)F)CCC12` (single isomer, unassigned) [Compound 15B, 6-hydroxy-4-methyl-1-(2-(trifluoromethyl)phenyl)-2,3,3a,4-tetrahydro-1H-pyrido[2,1-f]pyrrolo[1,2-b][1,2,4]triazine-5,7-dione], a half-maximal effect (EC50) was put at 1450 nM.
Take `CN1C(=O)c2c(O)c(=O)ccn2N2C1CCC(O)C2(C)c1ccccc1` (stereo not shown) [Compound 137A, 2,7-dihydroxy-1,5-dimethyl-1-phenyl-1,2,3,4,4a,5-hexahydrodipyrido[1,2-b:2′,1′-f][1,2,4]triazine-6,8-dione]: the EC50 came out at 790 nM.
Regarding `O=C1c2c(O)c(=O)ccn2N2C(c3ccccc3)C(CCC(F)(F)F)CCC2N1CC1CC1` (single isomer, unassigned) [Compound 100A, 5-(cyclopropylmethyl)-7-hydroxy-1-phenyl-2-(3,3,3-trifluoropropyl)-1,2,3,4,4a,5-hexahydrodipyrido[1,2-b:2′,1′-f][1,2,4]triazine-6,8-dione], the EC50 is > 810 nM.
The molecule `CC1(c2cc(C(F)(F)F)ccn2)CCCC2N(CC3(C(F)(F)F)CC3)C(=O)c3c(O)c(=O)ccn3N21` (single isomer, unassigned) [Compound 52A, 7-hydroxy-1-methyl-5-((1-(trifluoromethyl)cyclopropyl)methyl)-1-(4-(trifluoromethyl)pyridin-2-yl)-1,2,3,4,4a,5-hexahydrodipyrido[1,2-b:2′,1′-f][1,2,4]triazine-6,8-dione] came in with an EC50 of 114 nM.
Molecule `CN1C(=O)c2c(O)c(=O)ccn2N2C(c3ccccc3Cl)C(CC(F)(F)F)CCC12` (single isomer, unassigned) [Compound 119A, 1-(2-chlorophenyl)-7-hydroxy-5-methyl-2-(2,2,2-trifluoroethyl)-1,2,3,4,4a,5-hexahydrodipyrido[1,2-b:2′,1′-f][1,2,4]triazine-6,8-dione] registered an EC50 of 3080 nM.
Molecule `CN1C(=O)c2c(O)c(=O)ccn2N2C1CCCC2(C)c1cccc(F)c1` (single isomer, unassigned) [Compound 25B, 1-(3-fluorophenyl)-7-hydroxy-1,5-dimethyl-1,2,3,4,4a,5-hexahydrodipyrido[1,2-b:2′,1′-f][1,2,4]triazine-6,8-dione] showed an EC50 of 70.7 nM.
Molecule `CN1C(=O)c2c(O)c(=O)ccn2N2C(c3ccccc3)C(Cc3ccccc3)CCC12` (single isomer, unassigned) [Compound 117B, 2-benzyl-7-hydroxy-5-methyl-1-phenyl-1,2,3,4,4a,5-hexahydrodipyrido[1,2-b:2′,1′-f][1,2,4]triazine-6,8-dione] returned an EC50 of 113 nM.
Regarding `CCN1C(=O)c2c(O)c(=O)ccn2N2C(c3ccccc3)C(CC3(C(F)(F)F)CC3)CCC12` (single isomer, unassigned) [Compound 97A, 5-ethyl-7-hydroxy-1-phenyl-2-((1-(trifluoromethyl)cyclopropyl)methyl)-1,2,3,4,4a,5-hexahydrodipyrido[1,2-b:2′,1′-f][1,2,4]triazine-6,8-dione], the EC50 was > 810 nM.
Regarding `C=CCC1CCC2N(C)C(=O)c3c(O)c(=O)ccn3N2C1c1ccccc1Cl` (stereo not shown) [Compound 64D, 2-allyl-1-(2-chlorophenyl)-7-hydroxy-5-methyl-1,2,3,4,4a,5-hexahydrodipyrido[1,2-b:2′,1′-f][1,2,4]triazine-6,8-dione], the EC50 was determined as 4.6 nM.
For `Cc1cc(=O)c(O)c2n1N1C(c3ccccc3)C(CC(F)(F)F)CCC1N(C)C2=O` (single isomer, unassigned) [Compound 132B, 7-hydroxy-5,10-dimethyl-1-phenyl-2-(2,2,2-trifluoroethyl)-1,2,3,4,4a,5-hexahydrodipyrido[1,2-b:2′,1′-f][1,2,4]triazine-6,8-dione], the EC50 amounted to 21.3 nM.
`CN1C(=O)c2c(O)c(=O)ccn2N2[C@H](c3ccccc3)[C@H](OCCF)CC[C@@H]12` [Compound 162, (1R,2R,4aS)-2-(2-fluoroethoxy)-7-hydroxy-5-methyl-1-phenyl-1,2,3,4,4a,5-hexahydrodipyrido[1,2-b:2′,1′-f][1,2,4]triazine-6,8-dione] gave an EC50 (MDCK, 48 h) of 195 nM.
